From ChEMBL document CHEMBL1138204, “Low-calcemic, highly antiproliferative, 1-difluoromethyl hybrid analogs of the natural hormone 1alpha,25-dihydroxyvitamin D3: design, synthesis, and preliminary biological evaluation” (J Med Chem, 2006)

What was measured:
[1] = biological target: T1, Vitamin D3 receptor (Homo sapiens) (UniProt P11473); details: CV-1
T1 sequence (whole entry): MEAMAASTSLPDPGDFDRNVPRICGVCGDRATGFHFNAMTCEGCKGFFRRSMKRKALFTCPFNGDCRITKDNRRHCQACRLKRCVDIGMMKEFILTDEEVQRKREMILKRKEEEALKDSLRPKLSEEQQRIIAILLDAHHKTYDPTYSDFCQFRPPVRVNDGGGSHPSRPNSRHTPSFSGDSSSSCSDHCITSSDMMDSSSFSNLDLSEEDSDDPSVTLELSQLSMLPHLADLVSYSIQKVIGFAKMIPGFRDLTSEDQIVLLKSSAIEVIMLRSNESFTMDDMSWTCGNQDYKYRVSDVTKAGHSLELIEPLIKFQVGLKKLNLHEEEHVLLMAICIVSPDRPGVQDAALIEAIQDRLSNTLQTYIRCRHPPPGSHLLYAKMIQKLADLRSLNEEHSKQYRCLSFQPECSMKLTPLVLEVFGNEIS
Description: Activity on human VDR-mediated transcription of osteocalcin VDRE fused to thymidine kinase promoter/growth hormone reporter gene in CV1 cells

[2] = Antiproliferative activity against murine keratinocytes; assay type: functional; details: Mus musculus, Keratinocyte; read-out: ED50 (the source's name)
Vitamin D3 receptor = biological target: T2, Vitamin D3 receptor (Homo sapiens, UniProt P11473); assay: Displacement of [3H]1,25-dihydroxyvitamin D3 from human VDR by HAP assay
T2 sequence (P11473 whole entry): T1 sequence (whole entry)

[3] = biological target: T1, Vitamin D3 receptor (Homo sapiens)
Description: Stabilization of human [35S]VDR against trypsin digestion by protease assay

Rattus norvegicus = species: Rattus norvegicus; assay: Calcemic activity in Sprague-Dawley rat measured as urinary calcium excretion relative to calcitriol; assay type: functional, Urine

ED50 [1]	IC50 (Vitamin D3 receptor)	ED50 [3]	Compound	EC50 [2]	Activity (Rattus norvegicus)
390 nM	30 nM	500 nM	C=C1/C(=C\C=C2/CCC[C@]3(C)[C@@H]([C@H](C)CCCC(C)(C)O)CC[C@@H]23)C[C@@H](O)C[C@@H]1C(F)F	150 nM	–
0.6 nM	50 nM	4 nM	C=C1/C(=C\C=C2/CCC[C@]3(C)C([C@H](C)CCC(F)(F)C(O)(CC)CC)=CC[C@@H]23)C[C@@H](O)C[C@@H]1C(F)F	2 nM	16%
3 nM	19.5 nM	100 nM	C=C1/C(=C\C=C2/CCC[C@]3(C)[C@@H]([C@@H](C)OCCCC(O)(CC)CC)CC[C@@H]23)C[C@@H](O)C[C@@H]1C(F)F	7 nM	5%
